ChEMBL document CHEMBL1130458, “Inhibition of carboxypeptidase a by N-(4-t-Butylbenzoyl)-2-hydroxy-1-naphthaldehyde hydrazone” (Bioorg Med Chem Lett, 1997)

Experiments:
[1] = target: T1, Carboxypeptidase A1 (Bos taurus) (UniProt P00730); assay: Percentage inhibition of carboxypeptidase A (CPA, bovine, Type I) enzyme by the compound required to inhibit at 63 uM was evaluated
T1 sequence (whole entry): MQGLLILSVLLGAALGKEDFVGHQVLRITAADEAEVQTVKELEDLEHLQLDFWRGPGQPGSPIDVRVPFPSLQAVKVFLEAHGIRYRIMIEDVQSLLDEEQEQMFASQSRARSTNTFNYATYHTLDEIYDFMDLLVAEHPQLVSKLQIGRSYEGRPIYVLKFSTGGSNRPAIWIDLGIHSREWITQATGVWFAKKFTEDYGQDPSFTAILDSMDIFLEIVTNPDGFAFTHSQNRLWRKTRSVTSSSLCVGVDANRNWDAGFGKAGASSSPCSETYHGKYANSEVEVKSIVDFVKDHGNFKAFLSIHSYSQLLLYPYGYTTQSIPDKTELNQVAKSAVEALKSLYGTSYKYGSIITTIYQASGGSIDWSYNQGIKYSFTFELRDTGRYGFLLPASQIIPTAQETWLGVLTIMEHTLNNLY

[2] = target: T2, Angiotensin-converting enzyme (Oryctolagus cuniculus) (UniProt P12822); assay: Percentage inhibition of angiotensin converting enzyme (rabbit lung) by the compound required to inhibit at 63 uM was evaluated
T2 sequence (whole entry): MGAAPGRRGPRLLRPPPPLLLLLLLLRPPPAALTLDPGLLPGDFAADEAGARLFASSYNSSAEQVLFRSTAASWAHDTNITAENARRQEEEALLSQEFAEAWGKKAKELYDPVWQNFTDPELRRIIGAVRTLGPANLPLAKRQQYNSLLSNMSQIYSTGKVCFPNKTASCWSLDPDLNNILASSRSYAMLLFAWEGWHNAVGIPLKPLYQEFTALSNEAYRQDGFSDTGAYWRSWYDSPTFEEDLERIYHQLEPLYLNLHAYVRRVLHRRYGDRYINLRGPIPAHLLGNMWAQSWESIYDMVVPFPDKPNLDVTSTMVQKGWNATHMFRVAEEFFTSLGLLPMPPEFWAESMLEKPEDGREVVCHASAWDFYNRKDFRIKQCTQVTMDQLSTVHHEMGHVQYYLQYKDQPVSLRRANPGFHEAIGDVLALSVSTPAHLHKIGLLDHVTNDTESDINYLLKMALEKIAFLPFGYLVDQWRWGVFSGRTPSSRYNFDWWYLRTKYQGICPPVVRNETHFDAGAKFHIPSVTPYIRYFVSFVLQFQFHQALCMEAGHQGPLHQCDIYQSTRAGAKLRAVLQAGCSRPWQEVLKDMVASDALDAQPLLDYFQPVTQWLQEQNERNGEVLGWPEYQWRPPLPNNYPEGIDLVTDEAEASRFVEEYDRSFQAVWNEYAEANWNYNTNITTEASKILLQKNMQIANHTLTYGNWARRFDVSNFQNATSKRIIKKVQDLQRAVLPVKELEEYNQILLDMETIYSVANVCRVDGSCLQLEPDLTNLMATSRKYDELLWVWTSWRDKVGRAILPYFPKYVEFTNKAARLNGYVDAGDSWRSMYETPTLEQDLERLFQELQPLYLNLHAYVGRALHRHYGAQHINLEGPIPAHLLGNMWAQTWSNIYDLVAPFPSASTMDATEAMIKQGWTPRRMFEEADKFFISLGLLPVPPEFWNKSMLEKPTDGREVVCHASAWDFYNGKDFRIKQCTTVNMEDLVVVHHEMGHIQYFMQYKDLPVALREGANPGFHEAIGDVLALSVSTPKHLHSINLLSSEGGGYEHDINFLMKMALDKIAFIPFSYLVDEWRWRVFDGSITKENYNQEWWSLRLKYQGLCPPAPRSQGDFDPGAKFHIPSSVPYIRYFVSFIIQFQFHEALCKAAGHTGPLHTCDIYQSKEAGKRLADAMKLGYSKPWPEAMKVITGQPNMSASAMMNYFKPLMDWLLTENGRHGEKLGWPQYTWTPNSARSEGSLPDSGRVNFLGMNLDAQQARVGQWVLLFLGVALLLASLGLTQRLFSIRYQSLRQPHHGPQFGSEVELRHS

Carboxypeptidase A1 = target: T3, Carboxypeptidase A1 (Bos taurus, UniProt P00730); assay: Inhibitory concentration required to inhibit carboxypeptidase A (CPA, bovine, Type I) was evaluated
T3 sequence (P00730 whole entry): T1 sequence (whole entry)

| SMILES | inhibition [1] | inhibition [2] | IC50 (Carboxypeptidase A1) |
| --- | --- | --- | --- |
| CC(C)(C)c1ccc(C(=O)N/N=C/c2cccc3ccccc23)cc1 | 17% | 2% | – |
| CC(C)(C)c1ccc(C(=O)N/N=C/c2c(O)ccc3ccccc23)cc1 | – | 5% | 29 µM |
| CC(C)(C)c1ccc(C(=O)N/N=C/c2ccccc2O)cc1 | 33% | 3% | – |
